Blank lines part the entries; values can stand above or below the molecule they belong to.
Assays:
[1] = (Aime, 1995); cited from earlier work
[2] = chelate with europium; previous studies (Hemmila, 1984); cited from earlier work
[3] = (Bousquet, 1988); cited from earlier work
[4] = Fluorometric analysis (excitation and emission spectra); type: physicochemical; settings: FIG. 4
Description: For the synthesis of a nile blue-DTPA conjugate, 0.1 g of DTPA dianhydride (ccDPTA) was dissolved in 6 ml of dimethyl sulfoxide (DMSO) in a round bottom flask. Ninety mg of nile blue were dissolved in DMSO and 36 μL of triethyl amine were added, turning the solution purple. The nile blue solution was added drop wise to the solution of ccDTPA while stirring. The solution turned blue. Thirty-eight μL of […] (TEA) were added to the final mixture, turning the solution purple. After mixing, the mixture was heated to 60° C. and stirred for 2 hours. The reaction mixture was then loaded onto a silica gel column and eluted with acetone:ethylacetate. The fractions corresponding to the nile blue-DTPA conjugate were pooled and evaporated, yielding a magenta colored oil. The oil was rechromatographed on a second silica gel column using acetone as eluant. The nile blue-DTPA conjugated fractions were pooled and rotate-evaporated to give a magenta colored oil. […]
The only group of chelating agents known to produce highly soluble and stable lanthanide chelates are the polyamino polyacetic acid analogs. […] The simplest initial approach was to study the fluorescence characteristics of the chelate between Eu and other already commercially available polyaminopoly bis (2-aminoethyl ether) acetic acids. […]

[5] = Solubility in aqueous media at physiological pH; type: physicochemical
Excerpt: where R may be furoic acid, nicotinic acid, picolinic acid, or some other substituted aromatic acid. The subsituted tetrazacyclododecane (STACD) is produced by reacting the amine groups with a brominated acid. 6-Bromo-picolinic acid, 5-bromo-nicotinic acid, and 5-bromo-furoic acid are all appropriate for prepararing a STACD. However, not all of these molecules are soluble in aqueous media at physiological pH. For example, while the tetrafuroic acid derivative is soluble in physiological fluids, the tetranicotinic acid derivative is not. The derivative should be combined with a solubility enhancer, for example, […], to form a salt which is soluble at pH 7. Other solubility enhancers may also be employed to modify the solubility of the STACD complex.
Magnetic Resonance Imaging Contrast Agent: The molecules of the invention, especially TABFTA, STACD, and their derivatives, can also be used as contrast agents for magnetic resonance imaging (MRI). When chelated with lanthanide ions such as gadolinium (Gd^3+) or […], the resulting paramagnetic compound enhances the relaxation of hydrogen protons, increasing signal intensities in MRI imaging (Bousquet, 1988). The increased signal increases the signal-to-noise ratio, reducing imaging time. In addition, the contrast agent may increase specificity in diagnosis. […]

Molecule: O=C(O)CN(CCN(CC(=O)O)CC(=O)O)CCN(CC(=O)O)CC(=O)O [DTPA, diethylenetriaminepentaacetic acid]
affinity constant (k) [1]: 23

Molecule: O=C(O)CN(CCN(CC(=O)O)CC(=O)O)CC(=O)O [EDTA]
fluorescence of the chelate [2]: essentially non-fluorescent

Molecule: O=C([O-])CN1CCN(CC(=O)[O-])CCN(CC(=O)O)CCN(CC(=O)[O-])CC1.[Gd+3] [chelates of DOTA and gadolinium]
distribution after intravenous injection [3]: extracellular space distribution | excretion after intravenous injection [3]: excreted only by glomerular filtration

emission fluorescence wavelength [4]: 695 nm
Molecule: CC[N+](CC)=c1ccc2nc3c(cc(N)c4ccccc43)oc-2c1 [nile blue]

water solubility [5]: water-soluble
Molecule: tetraazabycyclofurantetraacetate [TABFTA]

From patent US20030215391A1, “Fluorescent agents for real-time measurement of organ function” (priority 2003, published 2003)
